Measurements from patent US20210113501A1, “METHOD OF ADMINISTERING BETA-HYDROXY-BETA-METHYLBUTYRATE (HMB)” (Metabolic Technologies, Inc., priority 2009, published 2021).

Test: Study 1 blood chemistry
Type: in vivo, human
Details: for Gamma-glutamyl: in U/L (unit assumed)
Experimental: Study 1 design. For study 1 the subjects reported to the laboratory in the morning following an overnight fast. Before ingestion of one of the supplemental treatments, a flexible sterile polyethylene catheter was inserted into a forearm vein using sterile procedures and a pre-ingestion blood sample was drawn. Subsequent blood samples were taken at 0, 2, 5, 10, 15, 25, 35, 45, 60, 90, 120 and 180 min after ingestion of the treatment. Plasma was separated and samples were stored frozen at −70° C. for analysis of HMB concentration. In addition, a portion of the pre-ingestion and 180 minute blood samples were used for measurements (LabCorp, Kansas City, Mo.) of glucose, uric acid, blood urea nitrogen (BUN), creatinine, sodium, potassium, chloride, carbon dioxide, phosphorous, protein, albumin, globulin, albumin:globulin ratio, total bilirubin, direct bilirubin, alkaline phosphatase, lactate dehydrogenase, aspartate aminotransferase (AST), alanine aminotransferase (ALT), gamma-glutamyl transpeptidase (GGT), iron binding capacity (TIBC), unsaturated iron binding capacity (UIBC), iron, iron saturation, total cholesterol, triglycerides, high density lipoprotein (HDL), low density lipoprotein (LDL), and cholesterol ratio. A complete blood count (CBC) was also performed before and after the 180 min treatment period. Subjects also completed a brief questionnaire to report any physical symptoms (such as nausea, headache, etc) they may have experienced during the experiment.
The data were analyzed using a crossover design with Proc GLM in SAS. (45) For the timed sampling of plasma HMB a repeated measures polynomial model was used. The model included subject, order, and treatment main effects and time by treatment interaction where appropriate. For other parameters Proc GLM was also used with subject, order, and treatment main effects and the p values are reported for the treatment main effect. Statistical significance was determined for p<0.05 and a trend was determined for 0.05<p<0.10.

[1] = After (180 min), listed as Free Acid Gel Sublingual
[2] = Before to After, listed as Free Acid Gel Sublingual
[3] = Before, listed as Free Acid Gel Sublingual

For `CC(C)(O)CC(=O)O` [HMB-Acid Gel Sublingual, 3-hydroxy-3-methylbutyric acid], the Albumin (After (180 min)) was 4.1 ± 0.2 g/dL, the “Direct Bilirubin” value (After (180 min)) was 0.1 ± 0.01 mg/dL and the “Iron Saturation” value (After (180 min)) was 30.9 ± 8.5%. The “A:G Ratio” value [1] was 1.8 ± 0.1, the “Alanine Aminotransferase” value [1] was 17.3 ± 2.7 IU/L and the “Alkaline Phosphatase” value [1] was 66.8 ± 6.8 IU/L. For the same compound, the “Aspartate Aminotransferase” value [1] was 28.3 ± 8.2 IU/L, the “Blood Urea Nitrogen” value [1] was 12.9 ± 0.8 mg/dL and the CO2 [1] was 24.3 ± 0.6 mEq/L. For the same compound, the Chloride [1] was 102.4 ± 1.1 mEq/L, the “Cholesterol Ratio” value [1] was 3.3 ± 0.2 and the Creatinine [1] was 1.0 ± 0.04 mg/dL. It also gave a Globulin [1] of 2.3 ± 0.1 g/dL, a Glucose [1] of 77.4 ± 2.5 mg/dL and an HDL [1] of 49.3 ± 4.3 mg/dL. For the same compound, the Iron [1] was 94.6 ± 16.6 µg/dL, the “Iron Binding Capacity” value [1] was 339.5 ± 30.8 µg/dL and the LDL [1] was 89.4 ± 4.9 mg/dL. For the same compound, the “Lactate Dehydrogenase” value [1] was 167.3 ± 12.2 IU/L, the Phosphorus [1] was 3.5 ± 0.2 mg/dL and the Potassium [1] was 4.5 ± 0.1 mEq/L. The Protein [1] was 6.4 ± 0.2 g/dL, the Sodium [1] was 137.8 ± 0.9 mEq/L and the “Total Bilirubin” value [1] was 0.5 ± 0.05 mg/dL. The “Total Cholesterol” value [1] was 155.5 ± 5.8 mg/dL, the Triglycerides [1] was 83.8 ± 15.8 mg/dL and the UIBC [1] was 244.9 ± 39.5 µg/dL. For the same compound, the “Uric Acid” value [1] was 4.0 ± 0.5 mg/dL, the Gamma-glutamyl [1] was 13.4 ± 1.2 and the “A:G Ratio” value (Before) was 1.9 ± 0.1. For the same compound, the Creatinine (Before) was 1.0 ± 0.1 mg/dL, the “Direct Bilirubin” value (Before) was 0.1 ± 0.01 mg/dL and the “Total Bilirubin” value (Before) was 0.4 ± 0.05 mg/dL. The “A:G Ratio % Change” value [2] was −2.0%, the “Alanine Aminotransferase % Change” value [2] was −0.7% and the “Albumin % Change” value [2] was 1.5%. For the same compound, the “Alkaline Phosphatase % Change” value [2] was 1.1%, the “Aspartate Aminotransferase % Change” value [2] was 0.9% and the “Blood Urea Nitrogen % Change” value [2] was −10.4%. For the same compound, the “CO2 % Change” value [2] was 1.0%, the “Chloride % Change” value [2] was −0.5% and the “Cholesterol Ratio % Change” value [2] was −0.4%. For the same compound, the “Creatinine % Change” value [2] was −1.5%, the “Direct Bilirubin % Change” value [2] was 8.6% and the “Gamma-glutamyl % Change” value [2] was 0.9%. For the same compound, the “Globulin % Change” value [2] was 1.6%, the “Glucose % Change” value [2] was 4.4% and the “HDL % Change” value [2] was 1.3%. For the same compound, the “Iron % Change” value [2] was 13.7%, the “Iron Binding Capacity % Change” value [2] was 3.5% and the “Iron Saturation % Change” value [2] was 6.0%. For the same compound, the “LDL % Change” value [2] was 2.1%, the “Lactate Dehydrogenase % Change” value [2] was 1.5% and the “Phosphorus % Change” value [2] was −13.2%. The “Potassium % Change” value [2] was 10.6%, the “Protein % Change” value [2] was 1.6% and the “Sodium % Change” value [2] was −1.1%. The “Total Bilirubin % Change” value [2] was 22.6%, the “Total Cholesterol % Change” value [2] was 0.7% and the “Triglycerides % Change” value [2] was −8.7%. For the same compound, the “UIBC % Change” value [2] was 0.1%, the “Uric Acid % Change” value [2] was −2.2% and the “Alanine Aminotransferase” value [3] was 17.4 ± 2.7 IU/L. For the same compound, the Albumin [3] was 4.1 ± 0.1 g/dL, the “Alkaline Phosphatase” value [3] was 66.0 ± 6.3 IU/L and the “Aspartate Aminotransferase” value [3] was 28.0 ± 7.9 IU/L. For the same compound, the “Blood Urea Nitrogen” value [3] was 14.4 ± 0.8 mg/dL, the CO2 [3] was 24.0 ± 0.5 mEq/L and the Chloride [3] was 102.9 ± 0.6 mEq/L. The “Cholesterol Ratio” value [3] was 3.3 ± 0.2, the Globulin [3] was 2.3 ± 0.2 g/dL and the Glucose [3] was 74.1 ± 1.7 mg/dL. The HDL [3] was 48.6 ± 4.6 mg/dL, the Iron [3] was 83.3 ± 16.4 µg/dL and the “Iron Binding Capacity” value [3] was 328.0 ± 32.8 µg/dL. For the same compound, the “Iron Saturation” value [3] was 29.1 ± 9.0%, the LDL [3] was 87.5 ± 5.7 mg/dL and the “Lactate Dehydrogenase” value [3] was 164.8 ± 12.5 IU/L. It also gave a Phosphorus [3] of 4.1 ± 0.05 mg/dL, a Potassium [3] of 4.0 ± 0.03 mEq/L and a Protein [3] of 6.3 ± 0.2 g/dL. The Sodium [3] was 139.3 ± 0.8 mEq/L, the “Total Cholesterol” value [3] was 154.4 ± 6.9 mg/dL and the Triglycerides [3] was 91.8 ± 16.1 mg/dL. The UIBC [3] was 244.8 ± 42.3 µg/dL, the “Uric Acid” value [3] was 4.0 ± 0.4 mg/dL and the Gamma-glutamyl [3] was 13.3 ± 1.2.
